Calls of active or inactive are those of the source. The calls are words filed in the database; no cut-off is given here.
Experiments:
Mus musculus [1] = assay: Anticonvulsant activity in ip dosed Mus musculus Swiss albino (mouse) assessed as protection against maximal electroshock-induced seizure; type: functional
Mus musculus [2] = assay: Anticonvulsant activity in ip dosed Mus musculus Swiss albino (mouse) assessed as protection against strychnine-induced seizure; type: functional
[3] = Protection index, ratio TD50 for neurotoxicity to ED50 for protection against maximal electroshock-induced seizure in Mus musculus Swiss albino (mouse); type: toxicity, organism-based; details: in vivo, read-out: Ratio TD50/ED50
Mus musculus [4] = assay: Anticonvulsant activity in Mus musculus Swiss albino (mouse) assessed as protection against strychnine-induced seizure at 300 mg/kg, ip measured at 4 hr; type: functional, organism-based; set-up: dose 300 mg/kg
Mus musculus [5] = assay: Anticonvulsant activity in ip dosed Mus musculus Swiss albino (mouse) assessed as protection against pentylenetetrazole-induced seizure at 0.5 hr; type: functional; details: read-out: MED
[6] = Neurotoxicity against ip dosed Mus musculus Swiss albino (mouse) by rota rod test; type: toxicity, organism-based; details: in vivo
Rattus norvegicus [7] = assay: Anticonvulsant activity in Rattus norvegicus Wistar (rat) assessed as protection against maximal electroshock-induced seizure at 30 mg/kg, po measured at 0.5 hr; type: functional, organism-based; set-up: dose 30 mg/kg
Mus musculus [8] = assay: Neurotoxicity against ip dosed Mus musculus Swiss albino (mouse) at 4 hr by rota rod test; type: toxicity, organism-based; details: in vivo
Mus musculus [9] = assay: Anticonvulsant activity in ip dosed Mus musculus Swiss albino (mouse) assessed as protection against maximal electroshock-induced seizure at 4 hr; type: functional; details: read-out: MED
Rattus norvegicus [10] = assay: Anticonvulsant activity in Rattus norvegicus Wistar (rat) assessed as protection against maximal electroshock-induced seizure at 30 mg/kg, po measured at 4 hr; type: functional, organism-based; set-up: dose 30 mg/kg
Mus musculus [11] = assay: Neurotoxicity against ip dosed Mus musculus Swiss albino (mouse) at 0.5 hr by rota rod test; type: toxicity, organism-based; details: in vivo
Mus musculus [12] = assay: Anticonvulsant activity in Mus musculus Swiss albino (mouse) assessed as protection against pentylenetetrazole-induced seizure at 300 mg/kg, ip; type: functional, organism-based; set-up: dose 300 mg/kg
Rattus norvegicus [13] = assay: Anticonvulsant activity in Rattus norvegicus Wistar (rat) assessed as protection against maximal electroshock-induced seizure at 30 mg/kg, po measured at 2 hr; type: functional, organism-based; set-up: dose 30 mg/kg
Rattus norvegicus [14] = assay: Anticonvulsant activity in Rattus norvegicus Wistar (rat) assessed as protection against maximal electroshock-induced seizure at 30 mg/kg, po measured at 0.25 hr; type: functional, organism-based; set-up: dose 30 mg/kg
Mus musculus [15] = assay: Anticonvulsant activity in ip dosed Mus musculus Swiss albino (mouse) assessed as protection against maximal electroshock-induced seizure at 0.5 hr; type: functional; details: read-out: MED
Mus musculus [16] = assay: Anticonvulsant activity in ip dosed Mus musculus Swiss albino (mouse) assessed as protection against strychnine-induced seizure at 0.5 hr; type: functional; details: read-out: MED
Mus musculus [17] = assay: Anticonvulsant activity in Mus musculus Swiss albino (mouse) assessed as protection against pentylenetetrazole-induced seizure at 300 mg/kg, ip measured at 4 hr; type: functional, organism-based; set-up: dose 300 mg/kg
Rattus norvegicus [18] = assay: Anticonvulsant activity in Rattus norvegicus Wistar (rat) assessed as protection against maximal electroshock-induced seizure at 30 mg/kg, po measured at 1 hr; type: functional, organism-based; set-up: dose 30 mg/kg
Mus musculus [19] = assay: Anticonvulsant activity in ip dosed Mus musculus Swiss albino (mouse) assessed as protection against strychnine-induced seizure at 4 hr; type: functional; details: read-out: MED
Mus musculus [20] = assay: Anticonvulsant activity in Mus musculus Swiss albino (mouse) assessed as protection against pentylenetetrazole-induced seizure at 300 mg/kg, ip measured at 0.5 hr; type: functional, organism-based; set-up: dose 300 mg/kg
Mus musculus [21] = assay: Anticonvulsant activity in ip dosed Mus musculus Swiss albino (mouse) assessed as protection against pentylenetetrazole-induced seizure; type: functional
Mus musculus [22] = assay: Anticonvulsant activity in ip dosed Mus musculus Swiss albino (mouse) assessed as protection against pentylenetetrazole-induced seizure at 4 hr; type: functional; details: read-out: MED
Mus musculus [23] = assay: Neurotoxicity against Mus musculus Swiss albino (mouse) at 300 mg/kg, ip measured at 4 hr by rota rod test; type: toxicity, organism-based; set-up: dose 300 mg/kg, route intraperitoneal; details: in vivo
Mus musculus [24] = assay: Anticonvulsant activity in Mus musculus Swiss albino (mouse) assessed as protection against strychnine-induced seizure at 300 mg/kg, ip; type: functional, organism-based; set-up: dose 300 mg/kg
Mus musculus [25] = assay: Anticonvulsant activity in Mus musculus Swiss albino (mouse) assessed as protection against strychnine-induced seizure at 300 mg/kg, ip measured at 0.5 hr; type: functional, organism-based; set-up: dose 300 mg/kg
Mus musculus [26] = assay: Neurotoxicity against Mus musculus Swiss albino (mouse) at 300 mg/kg, ip measured at 0.5 hr by rota rod test; type: toxicity, organism-based; set-up: dose 300 mg/kg, route intraperitoneal; details: in vivo

SMILES	ED50 (Mus musculus [1]) [mg/kg]	ED50 (Mus musculus [2]) [mg/kg]	selectivity ratio [3]	TD50 [6] [mg/kg]	Activity (Rattus norvegicus [7])	MTC (Mus musculus [8]) [mg/kg]	minimal effective dose (Mus musculus [9]) [mg/kg]	Activity (Rattus norvegicus [10])	MTC (Mus musculus [11]) [mg/kg]	Activity (Mus musculus [12])	Activity (Rattus norvegicus [13])	Activity (Rattus norvegicus [14])	minimal effective dose (Mus musculus [15]) [mg/kg]	minimal effective dose (Mus musculus [16]) [mg/kg]	Activity (Mus musculus [17])	Activity (Rattus norvegicus [18])	minimal effective dose (Mus musculus [19]) [mg/kg]	Activity (Mus musculus [20])	Activity (Mus musculus [23])	Activity (Mus musculus [24])	other results
OC(/C(=N\Cc1cccnc1)c1ccccc1)c1ccccc1 (stereo unspecified)	20.8	106	0.57	11.9	Active	30	30	inactive	30	inactive	Active	Active	30	100	inactive	Active	–	–	–	–	Activity (Mus musculus [4]): inactive; minimal effective dose (Mus musculus [5]): 300 mg/kg
C(=N\Cc1cccnc1)/c1ccccc1	53	62.4	2.1	112	inactive	100	30	Active	100	inactive	Active	inactive	100	100	inactive	Active	100	inactive	–	–	–
COc1cc(/C=N/Cc2cccnc2)ccc1O	53	14.2	3.31	176	inactive	–	30	Active	300	–	Active	inactive	100	30	–	Active	30	–	Non-toxic	–	minimal effective dose (Mus musculus [5]): 30 mg/kg; ED50 (Mus musculus [21]): 6.44 mg/kg; minimal effective dose (Mus musculus [22]): 30 mg/kg
C/C(=N\Cc1cccnc1)c1cccc(N)c1	8.64	–	6.97	60.2	Active	100	30	Active	100	inactive	Active	Active	30	30	inactive	Active	100	inactive	–	inactive	–
C(=C\c1ccccc1)/C=N/Cc1cccnc1	36.3	–	2.34	84.8	inactive	100	300	inactive	100	inactive	inactive	Active	30	–	inactive	inactive	–	inactive	–	inactive	Activity (Mus musculus [4]): inactive; Activity (Mus musculus [25]): inactive
CCC1(c2ccccc2)C(=O)NC(=O)NC1=O [PHENOBARBITAL]	21.8	–	–	–	–	–	–	–	–	–	–	–	–	–	–	–	–	–	–	inactive	ED50 (Mus musculus [21]): 13.2 mg/kg
COc1ccccc1/C=N/Cc1cccnc1	11.7	–	15	176	Active	300	30	Active	300	inactive	Active	Active	30	–	inactive	Active	–	inactive	–	inactive	Activity (Mus musculus [4]): inactive; Activity (Mus musculus [25]): inactive
O=C1NC(=O)C(c2ccccc2)(c2ccccc2)N1	–	–	–	–	Active	–	–	Active	–	inactive	Active	inactive	–	–	–	Active	–	–	–	inactive	–
Clc1ccc(/C=N/Cc2cccnc2)cc1	53	–	2.35	125	inactive	–	100	Active	100	inactive	inactive	inactive	100	100	inactive	inactive	300	inactive	Non-toxic	inactive	–
C/C(=N\Cc1cccnc1)c1ccccc1	55.7	–	> 10	> 500	inactive	–	30	Active	–	–	Active	inactive	100	–	–	Active	–	–	Non-toxic	inactive	Activity (Mus musculus [4]): inactive; minimal effective dose (Mus musculus [5]): 30 mg/kg; ED50 (Mus musculus [21]): 23.2 mg/kg; Activity (Mus musculus [26]): Non-toxic; Activity (Mus musculus [25]): inactive; minimal effective dose (Mus musculus [22]): 30 mg/kg
Clc1ccccc1/C=N/Cc1cccnc1	11.7	93.6	17.3	202	Active	–	30	Active	300	inactive	Active	Active	30	100	inactive	Active	100	inactive	Non-toxic	–	–
COc1cc(/C=N/Cc2cccnc2)cc(OC)c1OC	71.7	50.3	> 10	> 500	inactive	–	100	Active	–	inactive	Active	inactive	100	100	inactive	inactive	30	inactive	Non-toxic	–	Activity (Mus musculus [26]): Non-toxic
COc1ccc(/C=N/Cc2cccnc2)cc1O	6.39	–	31	198	Active	100	30	Active	300	inactive	Active	Active	30	100	inactive	Active	300	inactive	–	inactive	–
c1ccc(C(=NCc2cccnc2)c2ccccc2)cc1	9.13	–	> 10	> 500	Active	–	30	Active	–	inactive	inactive	Active	30	–	inactive	Active	–	inactive	Non-toxic	inactive	Activity (Mus musculus [4]): inactive; Activity (Mus musculus [26]): Non-toxic; Activity (Mus musculus [25]): inactive

Reference: ChEMBL document CHEMBL3044874, “Synthesis and characterization of some heterocyclic schiff bases: potential anticonvulsant agents” (Med Chem Res, 2011)
